From PMC7251097, “Aspartate/asparagine-β-hydroxylase: a high-throughput mass spectrometric assay for discovery of small molecule inhibitors” (Scientific Reports, 2020) come the findings set out here.

Values joined by “and” are separate entries in the source; they are usually repeats but may differ in a detail not shown here. Equal entries are not always repeated. Structures can show the parent of a compound that is named as a salt. Where two headings read alike, the source gives them in different places.

This experiment deals with T1, His6-AspH315–758 (human aspartate/asparagine-β-hydroxylase, AspH) (Homo sapiens, UniProt Q12797).
T1 construct: N-Terminally His6-tagged human AspH315–758 (His6-AspH315–758) was produced in E. coli BL21 (DE3) cells; made in house; host or cells: E. coli BL21 (DE3), pET-28a(+) vector
T1 sequence (Q12797 315-758): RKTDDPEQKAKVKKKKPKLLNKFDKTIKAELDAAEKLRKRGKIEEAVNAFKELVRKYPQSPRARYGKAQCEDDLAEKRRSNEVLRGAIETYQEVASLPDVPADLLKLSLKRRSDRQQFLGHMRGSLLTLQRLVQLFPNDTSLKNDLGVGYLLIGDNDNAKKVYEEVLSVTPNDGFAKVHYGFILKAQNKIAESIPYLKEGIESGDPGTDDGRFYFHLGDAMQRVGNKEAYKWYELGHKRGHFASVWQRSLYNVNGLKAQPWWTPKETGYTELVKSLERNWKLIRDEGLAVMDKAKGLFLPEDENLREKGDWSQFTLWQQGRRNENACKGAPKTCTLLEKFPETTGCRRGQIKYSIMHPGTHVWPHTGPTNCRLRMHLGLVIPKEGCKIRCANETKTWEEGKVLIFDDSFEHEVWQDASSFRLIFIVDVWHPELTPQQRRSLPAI
The experiment can be described thus: SPE-MS AspH inhibition assay (LOPAC screen at fixed 20 μM and IC50 dose-response), hydroxylation of cyclic peptide hFX-CP101–119. It counts as biochemical. The following applies: for IC50: read-out: IC50.

Where [1] appears, read: LOPAC Plate 4, compound at 20 uM, substrate conversion.
[2] abbreviates: LOPAC compound at 20uM, plate 3, conversion of substrate peptide.
Where [3] appears, read: 50 nM His6-AspH315–758, 1.0 μM hFX-CP101–119, 3 μM 2OG, 2 μM Fe(II), 50 mM HEPES pH 7.5, 20 °C, mean ± SD, n = 2 (2,4-PDCA n = 10).
[4] abbreviates: LOPAC compound at fixed 20 uM, plate 1, normalised to DMSO and 2,4-PDCA controls.
[5] abbreviates: LOPAC compound at fixed 20 uM, substrate conversion, plate 1.

In the case of `COc1ccc(CCN(C)CCc2ccc(OC)c(OC)c2)cc1OC.Cl` [YS-035 hydrochloride], the % inhibition (in general, the change of the read-out against control, counted positive when it falls) (LOPAC Plate 4, compound at 20 uM) is on record as -13.70%. Under setting [1], the “% conversion” value was 41.15%.
For `COC(=O)[C@@H]1[C@H]2C[C@H]3c4[nH]c5ccccc5c4CCN3C[C@@H]2CC[C@@H]1O` [Yohimbine hydrochloride], the inhibition (in general, the drop in the measured response relative to a control, in per cent) at 20 µM was -4.13%.
Regarding `O=C(N[C@@H](Cc1ccccc1)C(=O)CCl)OCc1ccccc1` [Z-L-Phe chloromethyl ketone], the “Plate 1 (% conversion)” value worked out at 35.86% and the “Plate 1 (% inhibition)” value is 0.032%.
As to `CC(C)N(CCC(=O)c1ccc2ccccc2c1)Cc1ccccc1.Cl` [ZM 39923 hydrochloride], the “Plate 3 (% conversion)” value under setting [2] turned out to be 15.79%.
As to `CCCOc1ccccc1-c1nc2nn[nH]c2c(=O)[nH]1` [Zaprinast], under setting [1], the “% conversion” value is recorded as 35.45%. Moreover, the inhibition at 20 µM (LOPAC Plate 4, compound at 20 uM, read-out: % inhibition) turned out to be 2.99%.
On to `CN(C)C/C=C(/c1ccc(Br)cc1)c1cccnc1` [Zimelidine dihydrochloride], for which, under setting [1], the “% conversion” value was 37.91%.
Still for that read-out and setting: the result for `O=C1Cc2cc(CCN3CCN(c4nsc5ccccc45)CC3)c(Cl)cc2N1` [Ziprasidone hydrochloride monohydrate] reads 26.15%.
Take `C[C@H](CSC(=O)c1ccccc1)C(=O)N1C[C@@H](Sc2ccccc2)C[C@H]1C(=O)[O-].C[C@H](CSC(=O)c1ccccc1)C(=O)N1C[C@@H](Sc2ccccc2)C[C@H]1C(=O)[O-].[Ca+2]` [Zofenopril calcium]: the “% conversion” value was 32.50%. Besides, the “% inhibition” value (20 µM) is 11.63%.
With `O=P(O)(O)C(O)(Cn1ccnc1)P(=O)(O)O` [Zoledronic acid monohydrate], the “Plate 3 (% conversion)” value was 37.14%.
For `NS(=O)(=O)Cc1noc2ccccc12` [Zonisamide sodium], the “% conversion” value under setting [1] was 32.12%.
For the compound `CC(N)Cc1c[nH]c2ccc(O)cc12.O=C(O)/C=C\C(=O)O` (stereo not drawn) [alpha-Methyl-5-hydroxytryptamine maleate], the “Plate 3 (% conversion)” value was found to be 39.06%.
For `NC(CO)C(=O)NNCc1ccc(O)c(O)c1O` (centres unmarked) [benserazide, reference compound], the IC50 (commonly the concentration that inhibits the measured activity by half) under setting [3] amounted to 3490 ± 760 nM. Also, the inhibition at 20 µM (AspH activity, fixed compound concentration 20 μM, initial LOPAC screen, 0.5%v/v DMSO, read-out: Inhibition at 20 µM [%]) worked out at 95.2%. Moreover, under setting [4], the “Plate 1 (% inhibition)” value turned out to be 95.21%. Moreover, the “Plate 1 (% conversion)” value under setting [5] was 3.90%.
With `O=C(O)/C=C/c1ccc(O)c(O)c1` [caffeic acid, reference compound], the half-inhibitory concentration (IC50) under setting [3] is 240 ± 80 nM. The “Plate 1 (% conversion)” value under setting [5] is 3.16%.
Turning to `CCOc1nc2cccc(C(=O)O)c2n1Cc1ccc(-c2ccccc2-c2nnn[nH]2)cc1` [candesartan, reference compound], the “IC50 [μM]” value under setting [3] was “no inhibition”.
With `CC(=O)OCC1=C(C(=O)[O-])N2C(=O)[C@@H](NC(=O)CCC[C@@H](N)C(=O)[O-])[C@H]2SC1.[Zn+2]` [cephalosporin C zinc salt, reference compound], the Inhibition (usually the relative decrease from the control value, in per cent) at 20 µM [%] is given as 98.1% and the “Plate 1 (% conversion)” value is on record as 2.94%. Further, where the note is “pH 7.5”, the IC50 was ~70 nM and 70 nM.
Regarding `NC/C=C\C(=O)O` [cis-4-Aminocrotonic acid], under setting [4], the “Plate 1 (% inhibition)” value was -8.37%. For the same compound, the “Plate 1 (% conversion)” value under setting [5] stood at 38.68%.
Regarding `OCCN1CCN(CC/C=C2/c3ccccc3Sc3ccc(C(F)(F)F)cc32)CC1` [cis-(Z)-Flupenthixol dihydrochloride], the “Plate 2 (% conversion)” value (LOPAC compound at 20uM, plate 2, conversion of substrate peptide) came to 67.44%. Also, the inhibition at 20 µM (LOPAC compound at 20uM, plate 2, normalised to DMSO and 2,4-PDCA controls, read-out: Plate 2 (% inhibition)) is -94%.
On to `C#CC(N)CCC(=O)O` (centres unmarked) [gamma-Acetylinic GABA], for which the “Plate 1 (% inhibition)” value under setting [4] is reported as -4.92%. For the same compound, the “Plate 1 (% conversion)” value under setting [5] stood at 37.52%.
In the case of `CC(C(=O)O)c1ccc(CC2CCCC2=O)cc1` (centres unmarked) [loxoprofen], under setting [2], the “Plate 3 (% conversion)” value was determined as 35.95%.
On the same count and under the same terms, the result for `NC(N)=NCc1cccc(I)c1.NC(N)=NCc1cccc(I)c1.O=S(=O)(O)O` [m-Iodobenzylguanidine hemisulfate] reads 36.94%.
As to `Cl.Nc1cc(Cl)c(N=C2NCCN2)c(Cl)c1` [p-Aminoclonidine hydrochloride], the “Plate 1 (% inhibition)” value under setting [4] is recorded as -0.11%. Also, the “Plate 1 (% conversion)” value under setting [5] amounted to 35.91%.
